Measured values taken from paper PMC9516332 (Frontiers in Oncology, 2022).
Where two headings read alike, the source gives them in different places.

Legend:
[1] = biological target: panel of 255 wild-type kinases (Homo sapiens, UniProt P45983); assay: Kinase panel profiling at 1 µmol/L (MSA or IMAP), percentage inhibition; type: biochemical; settings: read-out: %-inhibition at 1 µmol/L, JNK1
[2] = biological target: T1, panel of 255 wild-type kinases (Homo sapiens, UniProt Q8IW41); assay: as above; type: biochemical; settings: read-out: %-inhibition, MAPKAPK5
T1 sequence (Q8IW41 1-473): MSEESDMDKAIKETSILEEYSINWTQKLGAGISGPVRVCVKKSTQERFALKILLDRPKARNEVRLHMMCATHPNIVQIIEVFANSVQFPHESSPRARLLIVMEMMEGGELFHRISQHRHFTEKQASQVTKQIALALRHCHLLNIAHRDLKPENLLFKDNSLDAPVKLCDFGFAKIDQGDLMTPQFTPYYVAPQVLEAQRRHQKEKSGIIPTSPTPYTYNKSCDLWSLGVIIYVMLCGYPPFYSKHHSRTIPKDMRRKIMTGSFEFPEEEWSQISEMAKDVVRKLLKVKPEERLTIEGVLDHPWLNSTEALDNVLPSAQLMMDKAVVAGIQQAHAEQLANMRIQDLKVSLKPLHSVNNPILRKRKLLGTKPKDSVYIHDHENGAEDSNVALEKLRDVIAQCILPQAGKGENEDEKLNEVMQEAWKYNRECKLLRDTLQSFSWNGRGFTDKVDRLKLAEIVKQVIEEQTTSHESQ

AP-1060 (ETV6-NTRK3) = assay: Cell viability assay; settings: read-out: IC50 in cell proliferation assay
134 cancer cell lines = assay: Cell viability assay (ATPlite, 72 hours), IC50 on cancer cell line panel

For `CNC(=O)c1ccc(-c2cnc3ncc(Cc4ccc5ncccc5c4)n3n2)cc1F` [capmatinib], the inhibition at 1 µM [1] was -5.59%, the inhibition at 1 µM [2] was -7% and the IC50 (AP-1060 (ETV6-NTRK3)) was > 31.6 µM. For the same molecule, the IC50 (134 cancer cell lines; HEC-6, read-out: IC50 in cell proliferation assay) was > 31.6 µM, the IC50 (134 cancer cell lines; Homo sapiens, 769-P, read-out: IC50 in cell proliferation assay) was > 31.6 µM and the IC50 (134 cancer cell lines; Homo sapiens, 786-0, read-out: IC50 in cell proliferation assay) was > 31.6 µM. The IC50 (134 cancer cell lines; Homo sapiens, A 172, read-out: IC50 in cell proliferation assay) was > 31.6 µM, the IC50 (134 cancer cell lines; Homo sapiens, A204, read-out: IC50 in cell proliferation assay) was > 31.6 µM and the IC50 (134 cancer cell lines; Homo sapiens, A498, read-out: IC50 in cell proliferation assay) was > 31.6 µM. The IC50 (134 cancer cell lines; Homo sapiens, A549, read-out: IC50 in cell proliferation assay) was > 31.6 µM, the IC50 (134 cancer cell lines; Homo sapiens, A704, read-out: IC50 in cell proliferation assay) was > 31.6 µM and the IC50 (134 cancer cell lines; Homo sapiens, A-375, read-out: IC50 in cell proliferation assay) was > 31.6 µM. The IC50 (134 cancer cell lines; Homo sapiens, A-427, read-out: IC50 in cell proliferation assay) was 29.6 µM, the IC50 (134 cancer cell lines; Homo sapiens, ACHN, read-out: IC50 in cell proliferation assay) was > 31.6 µM and the IC50 (134 cancer cell lines; Homo sapiens, AN3-CA, read-out: IC50 in cell proliferation assay) was > 31.6 µM. For the same molecule, the IC50 (134 cancer cell lines; Homo sapiens, ASPC1, read-out: IC50 in cell proliferation assay) was > 31.6 µM, the IC50 (134 cancer cell lines; Homo sapiens, AU565, read-out: IC50 in cell proliferation assay) was 5.52 µM and the IC50 (134 cancer cell lines; Homo sapiens, BT-20, read-out: IC50 in cell proliferation assay) was > 31.6 µM. For the same molecule, the IC50 (134 cancer cell lines; Homo sapiens, BT-474, read-out: IC50 in cell proliferation assay) was > 31.6 µM, the IC50 (134 cancer cell lines; Homo sapiens, BT-549, read-out: IC50 in cell proliferation assay) was > 31.6 µM and the IC50 (134 cancer cell lines; Homo sapiens, BXPC-3, read-out: IC50 in cell proliferation assay) was > 31.6 µM. For the same molecule, the IC50 (134 cancer cell lines; Homo sapiens, C-33-A, read-out: IC50 in cell proliferation assay) was > 31.6 µM, the IC50 (134 cancer cell lines; Homo sapiens, CAL-27, read-out: IC50 in cell proliferation assay) was > 31.6 µM and the IC50 (134 cancer cell lines; Homo sapiens, CCF-STTG1, read-out: IC50 in cell proliferation assay) was > 31.6 µM. The IC50 (134 cancer cell lines; Homo sapiens, CCRF-CEM, read-out: IC50 in cell proliferation assay) was 28.3 µM, the IC50 (134 cancer cell lines; Homo sapiens, COLO 205, read-out: IC50 in cell proliferation assay) was > 31.6 µM and the IC50 (134 cancer cell lines; Homo sapiens, COLO-829, read-out: IC50 in cell proliferation assay) was > 31.6 µM. For the same molecule, the IC50 (134 cancer cell lines; Homo sapiens, DLD-1, read-out: IC50 in cell proliferation assay) was > 31.6 µM, the IC50 (134 cancer cell lines; Homo sapiens, DU-145, read-out: IC50 in cell proliferation assay) was > 31.6 µM and the IC50 (134 cancer cell lines; Homo sapiens, DU-4475, read-out: IC50 in cell proliferation assay) was 21.4 µM. The IC50 (134 cancer cell lines; Homo sapiens, Daoy, read-out: IC50 in cell proliferation assay) was > 31.6 µM, the IC50 (134 cancer cell lines; Homo sapiens, DoTc2-4510, read-out: IC50 in cell proliferation assay) was > 31.6 µM and the IC50 (134 cancer cell lines; Homo sapiens, EOL1, read-out: IC50 in cell proliferation assay) was > 31.6 µM. The IC50 (134 cancer cell lines; Homo sapiens, FaDu, read-out: IC50 in cell proliferation assay) was > 31.6 µM, the IC50 (134 cancer cell lines; Homo sapiens, G-361, read-out: IC50 in cell proliferation assay) was > 31.6 µM and the IC50 (134 cancer cell lines; Homo sapiens, HCC827, read-out: IC50 in cell proliferation assay) was 8.39 µM. The IC50 (134 cancer cell lines; Homo sapiens, HCC4006, read-out: IC50 in cell proliferation assay) was > 31.6 µM, the IC50 (134 cancer cell lines; Homo sapiens, HCT-15, read-out: IC50 in cell proliferation assay) was > 31.6 µM and the IC50 (134 cancer cell lines; Homo sapiens, HCT-116, read-out: IC50 in cell proliferation assay) was > 31.6 µM. For the same molecule, the IC50 (134 cancer cell lines; Homo sapiens, HEC-1, read-out: IC50 in cell proliferation assay) was > 31.6 µM, the IC50 (134 cancer cell lines; Homo sapiens, HEC-1B, read-out: IC50 in cell proliferation assay) was > 31.6 µM and the IC50 (134 cancer cell lines; Homo sapiens, HL-60, read-out: IC50 in cell proliferation assay) was > 31.6 µM. For the same molecule, the IC50 (134 cancer cell lines; Homo sapiens, HT, read-out: IC50 in cell proliferation assay) was > 31.6 µM, the IC50 (134 cancer cell lines; Homo sapiens, HT-1080, read-out: IC50 in cell proliferation assay) was > 31.6 µM and the IC50 (134 cancer cell lines; Homo sapiens, Hs746T, read-out: IC50 in cell proliferation assay) was 0.00123 µM. For the same molecule, the IC50 (134 cancer cell lines; Homo sapiens, Hs-578T, read-out: IC50 in cell proliferation assay) was > 31.6 µM, the IC50 (134 cancer cell lines; Homo sapiens, HuTu80, read-out: IC50 in cell proliferation assay) was > 31.6 µM and the IC50 (134 cancer cell lines; Homo sapiens, J82, read-out: IC50 in cell proliferation assay) was > 31.6 µM. The IC50 (134 cancer cell lines; Homo sapiens, Jurkat E6.1, read-out: IC50 in cell proliferation assay) was > 31.6 µM, the IC50 (134 cancer cell lines; Homo sapiens, K562, read-out: IC50 in cell proliferation assay) was > 31.6 µM and the IC50 (134 cancer cell lines; Homo sapiens, KATO III, read-out: IC50 in cell proliferation assay) was > 31.6 µM. The IC50 (134 cancer cell lines; Homo sapiens, KG-1, read-out: IC50 in cell proliferation assay) was > 31.6 µM, the IC50 (134 cancer cell lines; Homo sapiens, KLE, read-out: IC50 in cell proliferation assay) was > 31.6 µM and the IC50 (134 cancer cell lines; Homo sapiens, KMS-11, read-out: IC50 in cell proliferation assay) was 9.3 µM. For the same molecule, the IC50 (134 cancer cell lines; Homo sapiens, KU812, read-out: IC50 in cell proliferation assay) was > 31.6 µM, the IC50 (134 cancer cell lines; Homo sapiens, Kasumi 1, read-out: IC50 in cell proliferation assay) was 25 µM and the IC50 (134 cancer cell lines; Homo sapiens, LC-2-ad, read-out: IC50 in cell proliferation assay) was > 31.6 µM. The IC50 (134 cancer cell lines; Homo sapiens, LNCaP-Clone-FGC, read-out: IC50 in cell proliferation assay) was > 31.6 µM and the IC50 (134 cancer cell lines; Homo sapiens, LS174T, read-out: IC50 in cell proliferation assay) was > 31.6 µM.
